Read-outs that look alike come from different tables or passages of the source.
Assays:
Sagittaria trifolia = experiment: Field transplant rice test, applied 9 DAT, ST; assay type: in vivo; details: 216 h, read-out: Percent Inhibition, ST; for inhibition at 375 g/ha: 0.375 Kg/Ha; for inhibition at 750 g/ha: 0.75 Kg/Ha; for inhibition at 1500 g/ha: 1.5 Kg/Ha; for inhibition at 3000 g/ha: 3.0 Kg/Ha
Description: (§1) The test data in Table III for all compounds was obtained under identical test conditions. The weeds used in the tests herein have the following abbreviations in the tables: Echinochloa crus-galli (EC), Monochloria vaginalis (MV), Cyperus Serotinus (CS), Eleocharis Kuroguwai (EK) and Sagittaria trifolia (ST).
(§2) In further comparative tests, a preferred compound of this invention (Example 1) was tested in the field with prior art Compounds A-D. These tests were conducted under conditions reflecting herbicide application times generally favorable to all herbicides in the test. The timing of application of herbicides to transplant rice is very important, whether, as in some instances, prior to transplanting the rice; in other instances, at the time of transplanting or else after transplanting. Application times are conventionally referred to as "days before transplant" (DBT) or "days after transplant" ("DAT"). The field test data in Table IV was obtained from a test in which the herbicides were applied at the time of transplant, i.e., "0 DAT", with observations being made weekly up to six weeks after transplant ("WAT") beginning at two weeks after transplant; for illustrative and representative purposes, only the early, middle and late period observations, i.e., 2 WAT, 4 WAT and 6 WAT, are shown in Table IV. The data in Table IV is for rates of application common to all herbicides in the test, i.e., from 3.0 kg/ha (2.67 lb/A) down to 0.375 kg/ha (0.34 lb/A). All herbicides were applied at their actual or expected use rates, i.e., as granules containing 2.5% by weight herbicide for the compound of Example 1, Compounds B, C and D and 5.0% by weight for Compound A.
(§3) In Table V are presented field data showing the relative performance of the compound of Example 1 and Compounds A-D applied 9 DAT, with observations being made weekly from 3 WAT to 7 WAT; again, for illustrative and representative purposes, only the early, middle and late period observations are reported in Table V, the herbicide rates and concentrations of active ingredients the same as is shown in Table IV.

Echinochloa crus-galli [1] = experiment: Field transplant rice test, applied 9 DAT, EC; assay type: in vivo; details: for inhibition at 375 g/ha / inhibition at 750 g/ha / inhibition at 1500 g/ha / inhibition at 3000 g/ha: Echinochloa crus-galli, 216 h, read-out: Percent Inhibition, EC; for inhibition at 375 g/ha: 0.375 Kg/Ha; for inhibition at 750 g/ha: 0.75 Kg/Ha; for inhibition at 1500 g/ha: 1.5 Kg/Ha; for inhibition at 3000 g/ha: 3.0 Kg/Ha
Description: (§4) In the discussion of data below, occasional reference is made to herbicide application rates symbolized as "GR15 " and "GR85 "; these rates are given in kilograms per hectare (kg/ha) which are convertible into pounds per acre (lbs/A) by dividing the kg/ha rate by 1.12.
(§5) A further guide to the effectiveness of a chemical as a selective herbicide is the "selectivity factor" ("SF") for a herbicide in given crops and weeds. The selectivity factor is a measure of the relative degree of crop safety and weed injury and is expressed in terms of the GR15 /GR85 ratio, i.e., the GR15 rate for the crop divided by the GR85 rate for the weed, both rates in kg/ha (lb/A.)
as §1, §2, §3

Monochoria vaginalis = experiment: Field transplant rice test, applied 9 DAT, MV; assay type: in vivo; details: for inhibition at 375 g/ha / inhibition at 750 g/ha / inhibition at 1500 g/ha / inhibition at 3000 g/ha: Pontederia vaginalis, 216 h, read-out: Percent Inhibition, MV; for inhibition at 375 g/ha: 0.375 Kg/Ha; for inhibition at 750 g/ha: 0.75 Kg/Ha; for inhibition at 1500 g/ha: 1.5 Kg/Ha; for inhibition at 3000 g/ha: 3.0 Kg/Ha
Description: as §4, §5, §1, §2, §3

Cyperus serotinus = experiment: Greenhouse transplant rice test, CS; assay type: in vivo; details: about 3 WAT, read-out: Percent Inhibition, CS
Description: (§6) The test procedure used in this greenhouse test is as follows: Ray silt loam top soil containing about 0.05% by weight of krillium and sifted through a […] screen is fumigated about 5-10 days prior to use. Pots are then filled with said Ray silt loam soil to a level to allow for a 1 in. (2.54 cm) flooding depth. Rice plants (Bluebelle) of 2 to 3 weeks age are transplanted to the pots and bulbs or seeds of the test weeds also planted in the pots. The pots are then flooded and the test chemical applied to the surface of the flood water. The flood water is reduced to allow for germination of the Echinochloa crus-galli (barnyardgrass) seed and subsequently reflooded and maintained in that condition. Observations of percent inhibition using a scale of 0-100% are made about 3 weeks after transplant (WAT).
as §1

Rice [2] = experiment: Field transplant rice test, applied 9 DAT, rice injury; assay type: in vivo; details: Oryza sativa, 216 h, read-out: Percent Inhibition, Rice; for inhibition at 375 g/ha: 0.375 Kg/Ha; for inhibition at 750 g/ha: 0.75 Kg/Ha; for inhibition at 1500 g/ha: 1.5 Kg/Ha; for inhibition at 3000 g/ha: 3.0 Kg/Ha
Description: as §2, §3

Echinochloa crus-galli [3] = experiment: Greenhouse transplant rice test, EC; assay type: in vivo; details: about 3 WAT, read-out: Percent Inhibition, EC
Description: as §6, §1

Rice [4] = experiment: Greenhouse transplant rice test, rice injury; assay type: in vivo, Rice (Bluebelle); details: Oryza sativa, about 3 WAT, read-out: Percent Inhibition, Rice
Description: as §6, §1

SMILES: CCCCOCN(C(=O)CCl)c1c(CC)cccc1CC [Compound A, 2',6'-diethyl-N-(n-butoxymethyl)-2-chloroacetanilide]
- inhibition at 375 g/ha (Sagittaria trifolia; 3 WAT): 37%
- inhibition at 375 g/ha (Sagittaria trifolia; 5 WAT): 12%
- inhibition at 375 g/ha (Sagittaria trifolia; 7 WAT): 7%
- inhibition at 750 g/ha (Sagittaria trifolia; 3 WAT): 26%
- inhibition at 750 g/ha (Sagittaria trifolia; 5 WAT): 10%
- inhibition at 750 g/ha (Sagittaria trifolia; 7 WAT): 8%
- inhibition at 1500 g/ha (Sagittaria trifolia; 3 WAT): 35%
- inhibition at 1500 g/ha (Sagittaria trifolia; 5 WAT): 5%
- inhibition at 1500 g/ha (Sagittaria trifolia; 7 WAT): 3%
- inhibition at 3000 g/ha (Sagittaria trifolia; 3 WAT): 52%
- inhibition at 3000 g/ha (Sagittaria trifolia; 5 WAT): 23%
- inhibition at 3000 g/ha (Sagittaria trifolia; 7 WAT): 13%
- inhibition at 375 g/ha (Echinochloa crus-galli [1]; 3 WAT): 23%
- inhibition at 375 g/ha (Echinochloa crus-galli [1]; 5 WAT): 20%
- inhibition at 375 g/ha (Echinochloa crus-galli [1]; 7 WAT): 17%
- inhibition at 750 g/ha (Echinochloa crus-galli [1]; 3 WAT): 80%
- inhibition at 750 g/ha (Echinochloa crus-galli [1]; 5 WAT): 75%
- inhibition at 750 g/ha (Echinochloa crus-galli [1]; 7 WAT): 70%
- inhibition at 1500 g/ha (Echinochloa crus-galli [1]; 3 WAT): 88%
- inhibition at 1500 g/ha (Echinochloa crus-galli [1]; 5 WAT): 90%
- inhibition at 1500 g/ha (Echinochloa crus-galli [1]; 7 WAT): 85%
- inhibition at 3000 g/ha (Echinochloa crus-galli [1]; 3 WAT): 93%
- inhibition at 3000 g/ha (Echinochloa crus-galli [1]; 5 WAT): 93%
- inhibition at 3000 g/ha (Echinochloa crus-galli [1]; 7 WAT): 90%
- selectivity factor (GR15/GR85), EC in transplant rice (Echinochloa crus-galli [1]; between 3 WAT and 7 WAT): 2
- inhibition at 375 g/ha (Monochoria vaginalis; 3 WAT): 90%
- inhibition at 375 g/ha (Monochoria vaginalis; 5 WAT): 98%
- inhibition at 375 g/ha (Monochoria vaginalis; 7 WAT): 80%
- inhibition at 750 g/ha (Monochoria vaginalis; 3 WAT): 92%
- inhibition at 750 g/ha (Monochoria vaginalis; 5 WAT): 87%
- inhibition at 750 g/ha (Monochoria vaginalis; 7 WAT): 60%
- inhibition at 1500 g/ha (Monochoria vaginalis; 3 WAT): 100%
- inhibition at 1500 g/ha (Monochoria vaginalis; 5 WAT): 100%
- inhibition at 1500 g/ha (Monochoria vaginalis; 7 WAT): 100%
- inhibition at 3000 g/ha (Monochoria vaginalis; 3 WAT): 100%
- inhibition at 3000 g/ha (Monochoria vaginalis; 5 WAT): 100%
- inhibition at 3000 g/ha (Monochoria vaginalis; 7 WAT): 100%
- selectivity factor (GR15/GR85), MV in transplant rice (Monochoria vaginalis; between 3 WAT and 7 WAT): 8
- inhibition at 280 g/ha (Cyperus serotinus; 0.28 Kg/Ha): 100%
- inhibition at 560 g/ha (Cyperus serotinus; 0.56 Kg/Ha): 85%
- inhibition at 1120 g/ha (Cyperus serotinus; 1.12 Kg/Ha): 90%
- inhibition at 2240 g/ha (Cyperus serotinus; 2.24 Kg/Ha): 100%
- inhibition at 375 g/ha (Rice [2]; 3 WAT): 10%
- inhibition at 375 g/ha (Rice [2]; 5 WAT): 8%
- inhibition at 375 g/ha (Rice [2]; 7 WAT): 8%
- inhibition at 750 g/ha (Rice [2]; 3 WAT): 13%
- inhibition at 750 g/ha (Rice [2]; 5 WAT): 3%
- inhibition at 750 g/ha (Rice [2]; 7 WAT): 7%
- inhibition at 1500 g/ha (Rice [2]; 3 WAT): 12%
- inhibition at 1500 g/ha (Rice [2]; 5 WAT): 7%
- inhibition at 1500 g/ha (Rice [2]; 7 WAT): 5%
- inhibition at 3000 g/ha (Rice [2]; 3 WAT): 12%
- inhibition at 3000 g/ha (Rice [2]; 5 WAT): 7%
- inhibition at 3000 g/ha (Rice [2]; 7 WAT): 5%
- inhibition at 280 g/ha (Echinochloa crus-galli [3]; 0.28 Kg/Ha): 96%
- inhibition at 560 g/ha (Echinochloa crus-galli [3]; 0.56 Kg/Ha): 100%
- inhibition at 1120 g/ha (Echinochloa crus-galli [3]; 1.12 Kg/Ha): 100%
- inhibition at 2240 g/ha (Echinochloa crus-galli [3]; 2.24 Kg/Ha): 100%
- inhibition at 280 g/ha (Rice [4]; 0.28 Kg/Ha): 5%
- inhibition at 560 g/ha (Rice [4]; 0.56 Kg/Ha): 10%
- inhibition at 1120 g/ha (Rice [4]; 1.12 Kg/Ha): 10%
- inhibition at 2240 g/ha (Rice [4]; 2.24 Kg/Ha): 15%
